Earlier results as cited in article PMC8477420 (ChemMedChem, 2020).

Tests used:
[1] = test system: OCI-AML-2 cells; details: monotherapy
[2] = test system: OCI-AML-3 cells; details: monotherapy
[3] = test system: MOLM-13 cells; details: monotherapy
[4] = test system: Bcl-2

SMILES | viability [1] [%] | viability [2] | viability [3] | inhibition of Bcl-2 [4]
COc1ncc(-c2nc3c(n2C(C)C)[C@H](c2ccc(Cl)cc2)N(c2cc(Cl)cn(C)c2=O)C3=O)c(OC)n1 [HDM201] | 80 | no reduction | 80% | –
COc1ccc(C2=N[C@@H](c3ccc(Cl)cc3)[C@@H](c3ccc(Cl)cc3)N2C(=O)N2CCNC(=O)C2)c(OC(C)C)c1 [Nutlin-3a] | – | – | – | low micromolar inhibition
Cc1c(-c2c(-c3ccc(F)o3)sc3ncnc(O[C@H](Cc4ccccc4OCc4ccnn4CC(F)(F)F)C(=O)O)c23)ccc(OCCN2CCN(C)CC2)c1Cl [Compound S63845] | 95 | 60–70% | 60–70% | –
